The text below walks through data of US12692232B2, “Indole carboxamide compound, preparation therefor and use thereof” (NANJING RUISHUNING MEDICAL TECHNOLOGY CO., LTD., priority 2021, dated 2026).

The assay addresses T1, TRPC6 channel (Homo sapiens, UniProt Q9Y210).
T1 sequence (Q9Y210 1-931): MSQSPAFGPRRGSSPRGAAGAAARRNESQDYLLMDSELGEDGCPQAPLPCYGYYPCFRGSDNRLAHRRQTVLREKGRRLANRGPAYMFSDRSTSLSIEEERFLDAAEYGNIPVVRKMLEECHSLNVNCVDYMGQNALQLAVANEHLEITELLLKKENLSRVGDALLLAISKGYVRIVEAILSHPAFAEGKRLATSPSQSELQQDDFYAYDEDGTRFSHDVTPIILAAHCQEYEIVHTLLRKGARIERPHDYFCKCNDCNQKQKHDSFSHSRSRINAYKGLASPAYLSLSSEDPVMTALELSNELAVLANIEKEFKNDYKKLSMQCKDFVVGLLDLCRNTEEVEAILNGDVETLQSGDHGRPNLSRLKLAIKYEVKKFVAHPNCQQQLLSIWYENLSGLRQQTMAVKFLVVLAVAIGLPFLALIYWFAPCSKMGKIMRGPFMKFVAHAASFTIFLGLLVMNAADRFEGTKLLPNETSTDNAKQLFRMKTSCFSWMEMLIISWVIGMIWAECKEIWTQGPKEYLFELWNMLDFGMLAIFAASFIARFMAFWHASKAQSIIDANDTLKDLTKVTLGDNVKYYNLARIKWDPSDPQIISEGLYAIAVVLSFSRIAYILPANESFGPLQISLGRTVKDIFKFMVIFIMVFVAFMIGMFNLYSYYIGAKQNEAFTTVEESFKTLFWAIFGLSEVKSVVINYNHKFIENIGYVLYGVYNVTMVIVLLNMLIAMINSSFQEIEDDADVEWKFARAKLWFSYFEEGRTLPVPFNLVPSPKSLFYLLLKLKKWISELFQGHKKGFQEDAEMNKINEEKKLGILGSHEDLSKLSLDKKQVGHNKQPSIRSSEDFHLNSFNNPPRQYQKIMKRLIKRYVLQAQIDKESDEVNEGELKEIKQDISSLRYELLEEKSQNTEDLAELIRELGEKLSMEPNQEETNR
Put plainly: Inhibition of TRPC6 channel-mediated Ca2+ entry in HEK293hTRPC6 cells (Fura-2/AM, single concentration). More on the design: expressed in transfected cells; host or cells: HEK293 (lentiviral transduction, puromycin selection). The following applies: compound 80 μM, OAG 80 μM; for inhibition at 80 µM: read-out: inhibition of Ca2+ entry into the cells via TRPC6 channels compared with the solvent control group. The assay is classed as cell-based. The method, then: The inhibitory effect of the compounds of the present invention (as exemplified by Compound 1-1 obtained in Example 1) on TRPC6 channel-mediated Ca^2+ entry was determined using HEK293hTRPC6 as a tool cell overexpressing TRPC6 protein. The method was as follows:
Establishment of HEK293hTRPC6, a tool cell overexpressing TRPC6 protein: human embryonic kidney cells HEK293 were placed in DMEM culture medium (containing 10% inactivated fetal bovine serum, 100 U-mL^−1 penicillin, and 100 mg-L^−1 streptomycin) and cultured at 37° C. in a 5% CO2 incubator. Cells in the logarithmic growth phase were harvested at 50% and incubated with 25 μL of LV105-TRPC6 lentiviral particle suspension for 24 hours, and then the medium was changed. The experiment included a negative control group (no-load lentivirus) and a blank control group. The medium containing 2 μg/mL puromycin was changed after 48 h of infection until the cells in the blank group died. Western Blot assay was performed to detect the expression of TRPC6 protein in the cells to verify the successful construction of HEK293hTRPC6 cell.
Determination of the effect of the compounds on changes in intracellular calcium ion concentration ([Ca^2+]i) in HEK293hTRPC6 cells: HEK293hTRPC6 cell suspension was added to a 24-well plate with a coverslip and incubated at 37° C. in a 5% CO2 incubator for 24 h. The cell crawls were then removed and placed in the fluorescent dye Fura-2/AM, and incubated for 20 min at room temperature away from light. The slides were placed in the center of the bath, perfused with calcium-free Tyrode's solution for 5 min and fixed on the stage of an inverted fluorescence microscope. […] Fluorescence intensity was measured at different excitation wavelengths (340 nm, 380 nm) using a TILL Ion Imaging system (TILLvisION), and the value of fluorescence intensity emitted by intracellular fluorescent probe at different excitation wavelengths was substituted into the formula: [Ca^2+]i=Kd×β×(R−Rmin)/[…]. In the formula, R represents the experimentally determined fluorescence ratio (F340/F380); Kd represents the dissociation constant for the reaction of Fura-2/AM with Ca^2+, which is 386 nmol/L under physiological conditions; Rmax represents the F340/F380 when Ca^2+ is saturated (all Fura-2/AM is bound to Ca^2+); Rmin represents the F340/F380 when there is no Ca^2+; and β represents the ratio of fluorescence intensities at 380 nm in the absence of Ca^2+ and when Ca^2+ is saturated.
Experimental results: the amount of TRPC6-mediated Ca^2+ entry under conditions of open TRPC6 channels and the presence of extracellular Ca^2+ was measured, and the actual biological activity of the compounds was assessed by comparison with the solvent control.

Each structure is given as a SMILES string.

One may read the inhibition as the change of the read-out against control, counted positive when it falls. Turning to `Cn1c(C(=O)NCCC(=O)O)cc2ccccc21` [3-[(1-methyl-1H-indole-2-carbonyl)amino]propionic acid, reference compound], the “amount of TRPC6-mediated Ca2+ entry” value was 0.10±0.01 and the inhibition at 80 µM came to 53.9%.

Consider `CC(=O)OCCCNC(=O)c1c(C=O)c2ccccc2n1C` [compound 1-1, propyl 3-[(3-formyl-1-methyl-1H-indole-2-carbonyl)amino]acetate], for which the “amount of TRPC6-mediated Ca2+ entry” value was 0.06±0.01 and the inhibition at 80 µM was 79.9%.
